In patent US11229628B2, “TRPA1 and TRPV4 inhibitors and methods of using the same for organ-specific inflammation and itch” (Duke University, priority 2015, dated 2022):
Entries after “also recorded” stand apart in the source; their conditions may differ.

Key:
ET1 secretion by 1° MK = assay: ET1 secretion by non-stimulated 1° MK (ELISA of supernatant); type: cell-based, mouse
Description: FIG. 8: Central role for KC TRPV4 in UVB-evoked Ca^++ signaling and nocifensive behavior—ET1-related supplementary findings. (A) Augmentation of GSK101-evoked Ca^++ signaling by ET1. Shown are averaged Ca^++ measurements (fura-2) in response to 5 nM GSK101. […] (B) ET1 secretion by non-stimulated 1° MK depends on TRPV4 and PLC. Shown are relative ET1 concentrations (determined by ELISA, pg/mL; vehicle-treated and WT control normalized to 100) in supernatant of non-stimulated 1° MK. Note the clear dependence on TRPV4, as indicated by a 50% reduction in Trpv4^−/− 1° MK. […] In addition, PLC-inhibitor robustly affects ET1 secretion in WT and Trpv4^−/− 1° MK. (C) ET1 expression by UVB-exposed 1° MK depends on TRPV4 and PLC—immunocytochemistry. Shown is specific ET1 immunolabeling in 1° MK, exposed to UVB using the UVB-LEDs, as for Ca^++ imaging. Use of the UVB-LED device precluded application of a ET1 ELISA, only irradiated cells could be examined. […] (D) ET1 expression by UVB-exposed 1° MK depends on TRPV4 and PLC—quantification of immunocytochemistry.
We tested whether UVB causes ET1 upregulation in a TRPV4-dependent manner. Given the exquisite wave-length dependence of ET1 expression in 1° MKs, we resorted to the UVB-LED device as for Ca++ imaging (FIG. 6A and FIG. 2A-D). […] Consistent with its effects on UVB-evoked Ca++ transients, PLC-inhibitor U73122 also dampened ET1 expression. […] This leads to TRPV4-dependent Ca++ signaling, which in turn amplifies ET1 signaling in a paracrine/autocrine fashion.

mice = assay: UVB-evoked nocifensive behavior after topical GSK205 (Hargreaves' test, von Frey hair); type: in vivo, mouse
Description: (§1) A viscous solution of 68% EtOH/5% glycerol plus 1 mM or 5 mM GSK205 (none for control) was applied to hindpaws by rubbing in 20 μL, applied at time-points 1 hour and again 10 min before UV exposure.
Behavioral tests were performed to evaluate the decrease in withdrawal thresholds in response to mechanical or thermal stimuli applied to hind paws. These withdrawal thresholds were ascertained before and after UVB exposure. Mice were confined by plexi-glass enclosures on top of 25×26 cm Bio Rad Gel Doc 2000 UV transilluminator (302 nm), and otherwise allowed to openly explore this environment. UV-exposure lasted for 5 minutes with an exposure of 600 mJ/cm^2.
Hindpaw mechanical withdrawal thresholds were determined by the automated von Frey hair method, using a 0.5 mm diameter stainless steel filament, part of an automated plantar touch stimulator (Ugo Basile, Modena, Italy). Relevant detail included pre-test acclimatization in a quiet room for 30 min, conducting the test at the same time of day and blinded observers. The stimulus was delivered to the hindpaw, automatically discontinued upon withdrawal, and its intensity recorded automatically. 6-8 trials per animal were conducted, with equal exposure of both hindpaws, leading to an average withdrawal threshold. Results are reported as Δ-threshold, which was calculated by subtracting post-treatment from pre-treatment measurements, expressed as % or relative to 1.0.
Hindpaw thermal (hot) withdrawal thresholds were determined by the well-established Hargreaves' method, using an infra-red thermal stimulation device that delivers the stimulus from underneath the hindpaw combined with automatic shut-off upon withdrawal (Ugo Basile). Stimulation and measurements were conducted as described for von Frey hair testing. A cutoff of 20 sec was set to prevent tissue damage.
In view of the observed impact of epidermal-specific TRPV4-deficiency on mouse nociception in response to UVB, and because of the unambiguous effects of selective TRPV4 blockers on 1° MK in vitro, we tested the possible clinical relevance of our findings. For this purpose, we topically applied TRPV4 inhibitor GSK205 to WT mouse skin and subsequently exposed animals to UVB (FIG. 12A).

mouse paw-pad skin = assay: UVB-photodermatitis of mouse paw-pad skin after topical treatment (immunolabeling, histopathology, Edn1 qPCR); type: in vivo
Description: as §1
Routine procedures were followed as described previously (Chen et al., 2009). Mice were perfused transcardially with 30 mL PBS, followed by 30 mL 4% paraformaldehyde. Tissues, including the L5 DRGs (bilateral), and footpad preparations, were dissected and post-fixed in 4% paraformaldehyde. Tissue blocks were further cryoprotected in 30% sucrose in PBS for 24-48 hours. For mouse TRPV4, keratin-specific antibodies, phospho-ERK, IL-6, IL-1β, CXCL5 and caspase-1, tissue was prepared as frozen blocks and subsequently sectioned on a cryostat. For CD68, CD15 (neutrophil elastase) and CD3, mouse skin was prepared by 2% PFA perfusion. Footpad and DRG sections (both at 6-10 μm) were thaw-mounted, blocked with 5% normal goat serum (NGS; Jackson), then incubated overnight at 4° C. with the following primary antibodies: rabbit anti-TRPV4 (1:300; Abcam), mouse anti-keratin 14 (1:300; Abcam against C-terminal peptide beyond residue 850); rabbit anti-keratin 14 (1:1000; Fuchs-Lab), rabbit anti-phosph-ERK1/2 (1:500; Cell signaling technologies), goat anti-IL-1β (1:800; Abcam), goat anti-IL-6 (1:200; Santa Cruz Biotechnology Inc); rabbit anti-caspase-1 (1:200; Biovision Research Products, CA); goat anti-mouse LIX/CXCL5 (1:200; R&D Systems Inc), anti-CD68, anti-[…], and anti-CD3 (AbDSerotec). Immunodetection was accomplished with appropriate fluorescently-labeled secondary antibodies (AlexaFluor595, AlexaFluor488-conjugated antibodies at 1:600; Invitrogen; for CD15 biotinylated secondary antibody from donkey, 1:400 followed by rhodamine-streptavidine 1:250), or with peroxidase-linked detection reagents (for CD68) for 2 hours at room-temperature. Sections were rinsed, mounted, and cover-slipped with fluoromount (Sigma). Digital micrographs were obtained using a BX61 Olympus upright microscope, also with a Zeiss LSM510 confocal, both equipped with high-res CCD camera, and acquired with constant exposure settings, using ISEE or Zeiss Zen software. Morphometric analysis was conducted using ImageJ freeware (v1.45) with tailored regions-of-interest that spared the nuclear compartment. ImageJ was also used for determination of DRG surface area.
In view of TRPV4-dependence of ET/Edn1 expression in skin, we measured Edn1 mRNA abundance in GSK205 vs. vehicle treated paw-pad skin. […] In striking contrast, and in keeping with histopathology, Edn1 mRNA-expression in GSK205 topically-treated skin was found unchanged.
We also tested the response of down-stream UVB effector mechanisms to GSK205 treatment in vivo.

[1] = Stability on incubation in serum; type: in vitro ADME; settings: 3 h and 12 h incubation in serum at 37° C.
Description: It was also tested whether compounds are readily broken down in systemic fluid, for which serum was used.

| SMILES | ET1 secretion by non-stimulated 1° MK (ET1 secretion by 1° MK) | delay in thermal sensitivity after UVB (mice; topical 1 mM GSK205, Hargreaves' test) [h] | sensitivity to von Frey hair mechanical stimulation after UVB (mice; topical 5 mM GSK205) | thermally-evoked nocifensive behavior (thermal allodynia) after UVB (mice; topical 5 mM GSK205, Hargreaves' test, 48 hours post-UVB) | nocifensive behavior after UVB in Trpv4−/− mice (off-target effects) (mice; topical 5 mM GSK205 vs. vehicle, Trpv4−/− mice) | histopathology of UVB-photodermatitis (mouse paw-pad skin; topical 5 mM GSK205) | keratinocyte expression of CXCL5 in UVB-exposed footpad (mouse paw-pad skin; topical 5 mM GSK205) | keratinocyte expression of IL-1β in UVB-exposed footpad (mouse paw-pad skin; topical 5 mM GSK205) | keratinocyte expression of IL-6 in UVB-exposed footpad (mouse paw-pad skin; topical 5 mM GSK205) | Edn1 mRNA expression in paw-pad skin after UVB (mouse paw-pad skin; topical 5 mM GSK205, 2 hour and 24 hour time-points) | concentration of a fixed spiked amount after incubation in serum [1] |
| --- | --- | --- | --- | --- | --- | --- | --- | --- | --- | --- | --- |
| CN(CCc1ccc(Nc2nc(-c3cccnc3)cs2)cc1)Cc1ccccc1 [GSK205] | significant down-regulation | ~24 | significantly reduced sensitivity | sustained attenuation; also recorded: significant attenuation of thermal allodynia | did not show any inter-group differences; also recorded: lack of off-target effects | virtual elimination of inflammation; also recorded: markedly reduced inflammatory infiltrate | significant blocks; also recorded: attenuates | failed to upregulate; also recorded: attenuates | significant blocks; also recorded: attenuates | unchanged; also recorded: complete lack of this regulation |  |
| CN(CCc1ccc(Nc2nc(-c3ccccc3)cs2)cc1)Cc1ccccc1 [Compound 16-8] |  |  |  |  |  |  |  |  |  |  | did not change |
